{"source": "patent US20080051454A1", "about": "“Compositions and methods for transient receptor potential vanilloid (TRPV) channel mediated treatments” (The Board of Trustees Operating Michigan State University, priority 2006, published 2008)", "key": {"TRPV1−/− hearts": {"system": "TRPV1−/− hearts", "experiment": "Preconditioning (PC) protection against I/R in Langendorff hearts with receptor antagonists, TRPV1-null", "design": "species or system mouse", "conditions": "CAPZ 10^−7 M, CGRP8-37 10^−6 M, RP67580 10^−7 M", "protocol": "Male TRPV1 gene knockout (TRPV1-/-) strain B6.129S[…][…]^tm1Jul and matching control wild type (WT) strain C57BL/6J mice were used (Jackson Laboratory, Bar Harbor, Me.). Mice were heparinized (500 U/kg i.p.) and anesthetized with pentobarbital sodium (50 mg/kg i.p.). […] The distal end of the catheter was connected to a […] Performance Analyzer via a pressure transducer. Coronary flow (CF) was continuously measured using an ultrasonic flow probe placed in the aortic perfusion line. Hearts were paced at 400 bpm except during ischemic PC and sustained global ischemia to avoid inducing excessive ventricular tachyarrhythmia during reperfusion, and pacing was reinitiated 2 minutes after reperfusion. Left ventricular developed pressure (LVDP, peak systolic minuses LVEDP) and LV peak positive […]) during isovolumic contraction were used as indices of LV systolic function; LVEDP and the peak negative […] used as indices of LV diastolic function. […] Non-preconditioned hearts were time-matched perfused with the same duration as that of preconditioned hearts. Group 1: Controls. As normal controls (nonischemic), WT and TRPV1-/- hearts were perfused for 130 minutes. For I/R controls, WT and TRPV1-/- hearts were first perfused with Krebs-Henseleit buffer for 55 min (time-matched perfusion of the equilibration period plus the PC period), and subsequently subjected to 30 minutes of no-flow normothermic global ischemia followed by 40-minutes of reperfusion. Group 2: PC. […] The hearts were subjected to 30 minutes of no-flow normothermic global ischemia followed by 40-minutes of reperfusion as that of I/R control groups. Group 3: PC plus capsazepine (CAPZ). […] Two additional concentrations of CAPZ, 10^-6M and 10^-8 M, were used in WT hearts. An additional drug control was added. After a 20-minute equilibration period, WT hearts were perfused with CAPZ (10^-7 M) for 10 minutes without PC, followed by perfusion with Krebs-Henseleit buffer for 25 minutes (time-matched perfusion of the PC period) and then subjected to I/R. Group 4: […] […]"}, "[1]": {"system": "Wistar rats fed a NS or HS diet for 10 days", "experiment": "MAP responses to i.v. capsaicin with or without CAPZ in urethane-anesthetized rats", "assay_type": "in vivo, rat", "protocol": "Surgical Preparation Rats were anesthetized with ketamine and xylazine (80 and 4 mg/kg intraperitoneally, respectively) for cannulation or with urethane (1.5 g/kg intraperitoneally) for capsaicin administration. The left jugular vein, carotid and femoral artery were cannulated under anesthesia for injection of drugs or monitoring of mean arterial pressure (MAP) and heart rate (HR).\nEach dose of injection was separated by a 30-minute interval. To determine the specificity of capsaicin, CAPZ (3 mg/kg) was administered 10 minutes before capsaicin injection in a separate group."}, "WT hearts": {"system": "WT hearts", "experiment": "Lactate dehydrogenase (LDH) release during I/R", "design": "species or system mouse", "protocol": "Lactate dehydrogenase (LDH) release: In addition to the measurement of cardiac function, cardiac injury was assessed by measuring LDH release. Perfusion effluent was collected during the first 10 minutes to 20 minutes of I/R and stored at […] until analyzed. Total LDH levels were determined with the use of a CytoTox 96 assay (Promega). The data were expressed as absorbance units released per milliliter per minute per gram of heart wet tissues (Turnbull et al., Am J Physiol Heart Circ Physiol 290: […]-9, 2006; herein incorporated by reference)."}, "[2]": {"system": "Wistar rats fed a NS or HS diet for 3 weeks", "experiment": "MAP and HR responses to bolus CAPZ in conscious rats (3-week diet)", "assay_type": "in vivo, rat", "conditions": "for peak increase in MAP: CAPZ 3 mg/kg bolus, conscious", "description": "Animal Preparation: Experiments were approved by the institutional Animals Care and Use Committee. Male Wistar rats (6 weeks old, Charles River Laboratory, Wilmington, Mass.) were housed in a temperature-controlled room with a 12:12-hour light/dark cycle. Rats were selected randomly to receive either a normal-sodium diet (NS, 0.4% of Na^+ by weight) or a HS diet (HS, 4% of Na^+ by weight) for 3 weeks. The diets were purchased from Harlan Teklad. All rats drank water ad libitum throughout the experiment.\nSurgical Preparation The rats were anesthetized with ketamine and xylazine (80 and 4 mg/kg ip, respectively) for implantation of artery and vein catheters. The left jugular vein and carotid artery were cannulated for administration of drugs or for monitoring of mean arterial pressure (MAP) and heart rate (HR) with a Statham 231D pressure transducer coupled to a Gould 2400s recorder (Gould Instruments, Dayton, Ohio, USA). For conscious animal experiments, catheters were routed subcutaneously and exteriorized between the scapulae. Rats were quietly brought to home cages 3 hours after surgery, and MAP and HR were continuously recorded. Regular room light was turned on during experiments. The rats were allowed to acclimate to their surroundings for 15-30 minutes in their cages, i.e., until which time they ceased exploring the new environment and their blood pressures stabilized. Baseline MAP and HR were recorded for 15 minutes before administration of drugs (Supowit et al., 1997; Wang and Wang, 2004).\nProtocol 1: To determine whether the TRPV1 is tonically activated during HS intake, rats fed a NS or HS diet were randomly assigned to 2 groups for intravenous injection of CAPZ (3 mg/kg), a selective TRPV1 antagonist, in conscious states."}, "[3]": {"system": "rats fed either a high or normal sodium diet", "conditions": "cited from earlier work"}}}
{"smiles": "Oc1cc2c(cc1O)CN(C(=S)NCCc1ccc(Cl)cc1)CCC2", "note": "[CAPZ, N-[2-(4-Chlorophenyl)ethyl]-1,3,4,5-tetrahydro-7,8-dihydroxy-2H-2-benzazepine-2-carbothioamide]", "values": [{"measurement": "effect on these parameters in TRPV1−/− hearts", "setting": "TRPV1−/− hearts", "result": "no effect"}, {"measurement": "capsaicin-induced decrease in MAP after CAPZ", "setting": "[1]; CAPZ 3 mg/kg before capsaicin 10 μg/kg, HS", "result": "4±1", "unit": "mmHg"}, {"measurement": "capsaicin-induced decrease in MAP after CAPZ", "setting": "[1]; CAPZ 3 mg/kg before capsaicin 10 μg/kg, NS", "result": "4±1", "unit": "mmHg"}, {"measurement": "capsaicin-induced decrease in MAP after CAPZ", "setting": "[1]; CAPZ 3 mg/kg before capsaicin 30 μg/kg, HS", "result": "6±2", "unit": "mmHg"}, {"measurement": "capsaicin-induced decrease in MAP after CAPZ", "setting": "[1]; CAPZ 3 mg/kg before capsaicin 30 μg/kg, NS", "result": "5±1", "unit": "mmHg"}, {"measurement": "effect on PC protection assessed by LDH levels after I/R in WT hearts", "setting": "WT hearts", "result": "abolished"}, {"measurement": "peak increase in MAP", "setting": "[2]; HS 3 weeks", "result": "13±3", "unit": "mmHg"}, {"measurement": "peak increase in MAP", "setting": "[2]; NS 3 weeks", "result": "4±2", "unit": "mmHg"}, {"measurement": "duration of pressor action", "setting": "[2]; CAPZ 3 mg/kg, HS", "result": "6 to 7", "unit": "min"}, {"measurement": "time to peak MAP elevation after injection", "setting": "[2]; CAPZ 3 mg/kg, HS", "result": "≤ 2", "unit": "min"}, {"measurement": "change in HR", "setting": "[2]; CAPZ 3 mg/kg, NS or HS", "result": "no significant change"}, {"measurement": "effect on capsaicin actions on plasma CGRP and MAP", "setting": "[3]; rat, in vivo", "result": "blocked"}, {"measurement": "pro-hypertensive effects of salt", "setting": "[3]; rats fed a high salt diet", "result": "unmasked"}]}
